In patent US6355799B1, “Substituted benzene compounds, process for their preparation, and herbicidal and defoliant compositions containing them” (ISK Americas Incorporated, priority 1997, dated 2002):

How the values were obtained:
Format in all cases: in vivo
[1] = tested on: green foxtail (Setaria viridis, SETVI); assay: Pre-emerge test, greenhouse herbicide activity screening; conditions: pre-emerge, 14 days after application, rating scale 0-100
Summary of the method: (§1)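 Sandy loam pots; pre-emerge: sown 1 d pre-spray, surface-watered after, then bottom-watered. Post-emerge: sown 8–21 d before, 2–3 leaf stage, + 0.25% v/v NIS, bottom-watered. Acetone, 187 l/ha track spray, 15–1000 g ai/ha. 0–100 injury score, day 14.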

[2] = tested on: velvetleaf (Abutilon theophrasti, ABUTH); assay: as above; conditions: pre-emerge, 14 days after application, rating scale 0-100
Summary of the method: as §1

[3] = tested on: ivyleaf morningglory (Ipomoea hederacea, IPOHE); assay: as above; conditions: pre-emerge, 14 days after application, rating scale 0-100
Summary of the method: as §1

[4] = tested on: sicklepod (Cassia obtusifolia, CASOB); assay: as above; conditions: pre-emerge, 14 days after application, rating scale 0-100
Summary of the method: as §1

[5] = tested on: large crabgrass (Digitaria sanguinalis, DIGSA); assay: as above; conditions: pre-emerge, 14 days after application, rating scale 0-100
Summary of the method: as §1

[6] = tested on: johnsongrass (Sorghum halepense, SORHA); assay: as above; conditions: pre-emerge, 14 days after application, rating scale 0-100
Summary of the method: as §1

[7] = tested on: lambsquarters (Chenopodium album, CHEAL); assay: as above; conditions: pre-emerge, 14 days after application, rating scale 0-100
Summary of the method: as §1

[8] = tested on: barnyardgrass (Echinochloa crus-galli, ECHCG); assay: as above; conditions: pre-emerge, 14 days after application, rating scale 0-100
Summary of the method: as §1

[9] = tested on: redroot pigweed (Amaranthus retroflexus, AMARE); assay: as above; conditions: pre-emerge, 14 days after application, rating scale 0-100
Summary of the method: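 Compounds in acetone were track-sprayed at 15-1000 g ai/ha (187 l/ha) on sandy loam pots: pre-emerge one day after seeding, post-emerge at 2-3 leaf stage with 0.25% v/v non-ionic surfactant. Phytotoxicity was rated 14 days later on a 0 (no damage) to 100 (complete death) scale.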

[10] = tested on: green foxtail (Setaria viridis, SETVI); assay: Post-emerge test, greenhouse herbicide activity screening; conditions: rating scale 0-100 (0 no damage, 100 complete death), 14 days after application
Summary of the method: as §1

[11] = tested on: velvetleaf (Abutilon theophrasti, ABUTH); assay: as above; conditions: rating scale 0-100 (0 no damage, 100 complete death), 14 days after application
Summary of the method: as §1

[12] = tested on: redroot pigweed (Amaranthus retroflexus, AMARE); assay: as above; conditions: rating scale 0-100 (0 no damage, 100 complete death), 14 days after application
Summary of the method: as §1

[13] = tested on: ivyleaf morningglory (Ipomoea hederacea, IPOHE); assay: as above; conditions: rating scale 0-100 (0 no damage, 100 complete death), 14 days after application
Summary of the method: as §1

[14] = tested on: sicklepod (Cassia obtusifolia, CASOB); assay: as above; conditions: rating scale 0-100 (0 no damage, 100 complete death), 14 days after application
Summary of the method: as §1

[15] = tested on: common ragweed (Ambrosia artemisizfolia L., AMBEL); assay: as above; conditions: rating scale 0-100 (0 no damage, 100 complete death), 14 days after application
Summary of the method: as §1

[16] = tested on: large crabgrass (Digitaria sanguinalis, DIGSA); assay: as above; conditions: rating scale 0-100 (0 no damage, 100 complete death), 14 days after application
Summary of the method: as §1

[17] = tested on: johnsongrass (Sorghum halepense, SORHA); assay: as above; conditions: rating scale 0-100 (0 no damage, 100 complete death), 14 days after application
Summary of the method: as §1

[18] = tested on: lambsquarters (Chenopodium album, CHEAL); assay: as above; conditions: rating scale 0-100 (0 no damage, 100 complete death), 14 days after application
Summary of the method: as §1

[19] = tested on: barnyardgrass (Echinochloa crus-galli, ECHCG); assay: as above; conditions: rating scale 0-100 (0 no damage, 100 complete death), 14 days after application
Summary of the method: as §1

[20] = tested on: upland rice (Oryza sp., var. Tebonnet, RICE); assay: Post-emerge test, crop safety; conditions: rating scale 0-100 (0 no damage, 100 complete death), 14 days after application
Summary of the method: as §1

[21] = tested on: field corn (Zea mays L., var. Dekalb 535, CORN); assay: Post-emerge test, crop safety; conditions: rating scale 0-100 (0 no damage, 100 complete death), 14 days after application
Summary of the method: as §1

[22] = tested on: upland rice (Oryza sp., var. Tebonnet, RICE); assay: Pre-emerge test, crop safety; conditions: pre-emerge, 14 days after application, rating scale 0-100
Summary of the method: (§2)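 Fourteen days after spraying, crop and weed injury was graded visually from 0, no effect, to 100, every plant dead. Test substances were dissolved in acetone and applied at 15–1000 g ai/ha with a flat-fan nozzle. Application was either pre-emergence, one day after sowing, or post-emergence at the 2–3 leaf stage.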

[23] = tested on: field corn (Zea mays L., var. Dekalb 535, CORN); assay: Pre-emerge test, crop safety; conditions: pre-emerge, 14 days after application, rating scale 0-100
Summary of the method: as §2

## COc1c(Cl)cc(F)c(-n2c(=O)cc(C(F)(F)F)n(C)c2=O)c1CC(C)(Cl)C(=O)OCC1CCCO1 (centres unmarked) [14-49]
[1]; 63 g ai/ha
  phytotoxicity rating SETVI: 50
[1]; 250 g ai/ha
  phytotoxicity rating SETVI: 100
[2]; 63 g ai/ha
  phytotoxicity rating ABUTH: 100
[2]; 250 g ai/ha
  phytotoxicity rating ABUTH: 100
[3]; 63 g ai/ha
  phytotoxicity rating IPOHE: 50
[3]; 250 g ai/ha
  phytotoxicity rating IPOHE: 90
[4]; 63 g ai/ha
  phytotoxicity rating CASOB: 0
[4]; 250 g ai/ha
  phytotoxicity rating CASOB: 70
[5]; 63 g ai/ha
  phytotoxicity rating DIGSA: 50
[5]; 250 g ai/ha
  phytotoxicity rating DIGSA: 100
[6]; 63 g ai/ha
  phytotoxicity rating SORHA: 20
[6]; 250 g ai/ha
  phytotoxicity rating SORHA: 90
[7]; 63 g ai/ha
  phytotoxicity rating CHEAL: 100
[7]; 250 g ai/ha
  phytotoxicity rating CHEAL: 100
[8]; 63 g ai/ha
  phytotoxicity rating ECHCG: 0
[8]; 250 g ai/ha
  phytotoxicity rating ECHCG: 100
[9]; 63 g ai/ha
  phytotoxicity rating AMARE: 100
[9]; 250 g ai/ha
  phytotoxicity rating AMARE: 100
[10]; Rate 63 g ai/ha
  Post-emerge Herbicidal Activity, phytotoxicity rating SETVI: 50
[10]; Rate 250 g ai/ha
  Post-emerge Herbicidal Activity, phytotoxicity rating SETVI: 100
[11]; Rate 63 g ai/ha
  Post-emerge Herbicidal Activity, phytotoxicity rating ABUTH: 100
[11]; Rate 250 g ai/ha
  Post-emerge Herbicidal Activity, phytotoxicity rating ABUTH: 100
[12]; Rate 63 g ai/ha
  Post-emerge Herbicidal Activity, phytotoxicity rating AMARE: 100
[12]; Rate 250 g ai/ha
  Post-emerge Herbicidal Activity, phytotoxicity rating AMARE: 100
[13]; Rate 63 g ai/ha
  Post-emerge Herbicidal Activity, phytotoxicity rating IPOHE: 100
[13]; Rate 250 g ai/ha
  Post-emerge Herbicidal Activity, phytotoxicity rating IPOHE: 100
[14]; Rate 63 g ai/ha
  Post-emerge Herbicidal Activity, phytotoxicity rating CASOB: 70
[14]; Rate 250 g ai/ha
  Post-emerge Herbicidal Activity, phytotoxicity rating CASOB: 95
[15]; Rate 63 g ai/ha
  Post-emerge Herbicidal Activity, phytotoxicity rating AMBEL: 100
[15]; Rate 250 g ai/ha
  Post-emerge Herbicidal Activity, phytotoxicity rating AMBEL: 100
[16]; Rate 63 g ai/ha
  Post-emerge Herbicidal Activity, phytotoxicity rating DIGSA: 70
[16]; Rate 250 g ai/ha
  Post-emerge Herbicidal Activity, phytotoxicity rating DIGSA: 95
[17]; Rate 63 g ai/ha
  Post-emerge Herbicidal Activity, phytotoxicity rating SORHA: 70
[17]; Rate 250 g ai/ha
  Post-emerge Herbicidal Activity, phytotoxicity rating SORHA: 95
[18]; Rate 63 g ai/ha
  Post-emerge Herbicidal Activity, phytotoxicity rating CHEAL: 100
[18]; Rate 250 g ai/ha
  Post-emerge Herbicidal Activity, phytotoxicity rating CHEAL: 100
[19]; Rate 63 g ai/ha
  Post-emerge Herbicidal Activity, phytotoxicity rating ECHCG: 100
[19]; Rate 250 g ai/ha
  Post-emerge Herbicidal Activity, phytotoxicity rating ECHCG: 100
[20]; Rate 63 g ai/ha
  Post-emerge phytotoxicity rating RICE (crop damage): 50
[20]; Rate 250 g ai/ha
  Post-emerge phytotoxicity rating RICE (crop damage): 95
[21]; Rate 63 g ai/ha
  Post-emerge phytotoxicity rating CORN (crop damage): 80
[21]; Rate 250 g ai/ha
  Post-emerge phytotoxicity rating CORN (crop damage): 100
[22]; 63 g ai/ha
  phytotoxicity rating RICE: 40
[22]; 250 g ai/ha
  phytotoxicity rating RICE: 95
[23]; 63 g ai/ha
  phytotoxicity rating CORN: 10
[23]; 250 g ai/ha
  phytotoxicity rating CORN: 95

## CCOC(=O)C(Cl)(C#N)Cc1c(OC)c(Cl)cc(F)c1-n1c(=O)cc(C(F)(F)F)n(C)c1=O (centres unmarked) [14-51]
[1]; 63 g ai/ha
  phytotoxicity rating SETVI: 0
[1]; 250 g ai/ha
  phytotoxicity rating SETVI: 0
[2]; 63 g ai/ha
  phytotoxicity rating ABUTH: 10
[2]; 250 g ai/ha
  phytotoxicity rating ABUTH: 100
[3]; 63 g ai/ha
  phytotoxicity rating IPOHE: 0
[3]; 250 g ai/ha
  phytotoxicity rating IPOHE: 50
[4]; 63 g ai/ha
  phytotoxicity rating CASOB: 0
[4]; 250 g ai/ha
  phytotoxicity rating CASOB: 0
[5]; 63 g ai/ha
  phytotoxicity rating DIGSA: 0
[5]; 250 g ai/ha
  phytotoxicity rating DIGSA: 0
[6]; 63 g ai/ha
  phytotoxicity rating SORHA: 0
[6]; 250 g ai/ha
  phytotoxicity rating SORHA: 0
[7]; 63 g ai/ha
  phytotoxicity rating CHEAL: 90
[7]; 250 g ai/ha
  phytotoxicity rating CHEAL: 100
[8]; 63 g ai/ha
  phytotoxicity rating ECHCG: 0
[8]; 250 g ai/ha
  phytotoxicity rating ECHCG: 0
[9]; 63 g ai/ha
  phytotoxicity rating AMARE: 100
[9]; 250 g ai/ha
  phytotoxicity rating AMARE: 100
[10]; Rate 63 g ai/ha
  Post-emerge Herbicidal Activity, phytotoxicity rating SETVI: 0
[10]; Rate 250 g ai/ha
  Post-emerge Herbicidal Activity, phytotoxicity rating SETVI: 0
[11]; Rate 63 g ai/ha
  Post-emerge Herbicidal Activity, phytotoxicity rating ABUTH: 0
[11]; Rate 250 g ai/ha
  Post-emerge Herbicidal Activity, phytotoxicity rating ABUTH: 50
[12]; Rate 63 g ai/ha
  Post-emerge Herbicidal Activity, phytotoxicity rating AMARE: 0
[12]; Rate 250 g ai/ha
  Post-emerge Herbicidal Activity, phytotoxicity rating AMARE: 0
[13]; Rate 63 g ai/ha
  Post-emerge Herbicidal Activity, phytotoxicity rating IPOHE: 0
[13]; Rate 250 g ai/ha
  Post-emerge Herbicidal Activity, phytotoxicity rating IPOHE: 30
[14]; Rate 63 g ai/ha
  Post-emerge Herbicidal Activity, phytotoxicity rating CASOB: 0
[14]; Rate 250 g ai/ha
  Post-emerge Herbicidal Activity, phytotoxicity rating CASOB: 0
[15]; Rate 63 g ai/ha
  Post-emerge Herbicidal Activity, phytotoxicity rating AMBEL: 0
[15]; Rate 250 g ai/ha
  Post-emerge Herbicidal Activity, phytotoxicity rating AMBEL: 20
[16]; Rate 63 g ai/ha
  Post-emerge Herbicidal Activity, phytotoxicity rating DIGSA: 0
[16]; Rate 250 g ai/ha
  Post-emerge Herbicidal Activity, phytotoxicity rating DIGSA: 0
[17]; Rate 63 g ai/ha
  Post-emerge Herbicidal Activity, phytotoxicity rating SORHA: 0
[17]; Rate 250 g ai/ha
  Post-emerge Herbicidal Activity, phytotoxicity rating SORHA: 0
[18]; Rate 63 g ai/ha
  Post-emerge Herbicidal Activity, phytotoxicity rating CHEAL: 0
[18]; Rate 250 g ai/ha
  Post-emerge Herbicidal Activity, phytotoxicity rating CHEAL: 10
[19]; Rate 63 g ai/ha
  Post-emerge Herbicidal Activity, phytotoxicity rating ECHCG: 10
[19]; Rate 250 g ai/ha
  Post-emerge Herbicidal Activity, phytotoxicity rating ECHCG: 20
[20]; Rate 63 g ai/ha
  Post-emerge phytotoxicity rating RICE (crop damage): 0
[20]; Rate 250 g ai/ha
  Post-emerge phytotoxicity rating RICE (crop damage): 0
[21]; Rate 63 g ai/ha
  Post-emerge phytotoxicity rating CORN (crop damage): 0
[21]; Rate 250 g ai/ha
  Post-emerge phytotoxicity rating CORN (crop damage): 0
[22]; 63 g ai/ha
  phytotoxicity rating RICE: 0
[22]; 250 g ai/ha
  phytotoxicity rating RICE: 0
[23]; 63 g ai/ha
  phytotoxicity rating CORN: 0
[23]; 250 g ai/ha
  phytotoxicity rating CORN: 0
